These results are taken from US20130196984A1, “3-AMINO-5-PHENYL-56-DIHYDRO-2H-[1,4]OXAZINES” (Siena Biotech S.p.A., priority 2009, published 2013).

Where a name gives a salt, the structure may show the parent alone.

Assay [1] deals with T1, BACE2 (Rattus norvegicus, UniProt Q6IE75).
T1 construct: endogenous cellular BACE2 in the Ins1e rat cell line; endogenous in cells; host or cells: INS-TMEM27 (INS1e-derived rat cell line with doxycycline-inducible full-length hTMEM27)
T1 sequence (Q6IE75 63-514): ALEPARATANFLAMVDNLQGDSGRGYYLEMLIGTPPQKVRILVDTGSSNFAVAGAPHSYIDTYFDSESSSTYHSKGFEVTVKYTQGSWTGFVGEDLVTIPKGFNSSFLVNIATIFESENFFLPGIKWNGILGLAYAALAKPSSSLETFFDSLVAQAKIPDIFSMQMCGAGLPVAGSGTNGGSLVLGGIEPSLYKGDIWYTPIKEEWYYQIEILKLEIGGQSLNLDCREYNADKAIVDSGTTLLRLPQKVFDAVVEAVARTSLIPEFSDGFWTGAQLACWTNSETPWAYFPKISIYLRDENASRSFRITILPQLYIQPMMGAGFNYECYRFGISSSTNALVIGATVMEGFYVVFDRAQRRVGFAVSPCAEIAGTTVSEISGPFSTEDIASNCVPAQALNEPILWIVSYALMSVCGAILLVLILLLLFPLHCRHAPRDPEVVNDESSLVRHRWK
Nature of the assay: Assay for BACE inhibition by measuring cellular TMEM27 cleavage.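 Also: inhibitor added 2 h before doxycycline-induced hTMEM27 expression, supernatant collected after further 46 h, endogenous BACE2 activity read as reduced TMEM27 shedding.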 Format: cell-based. The conditions noted are these: INS-TMEM27 (INS1e-derived) cells, ELISA of shed human TMEM27 in supernatant. On the technique in general: ELISA stands for enzyme-linked immunosorbent assay.

In assay [2] the target is T2, BACE2 (Homo sapiens, UniProt Q9Y5Z0).
T2 construct: BACE2 enzyme ectodomain (derived from plasmid “pET17b-T7-hu proBACE2”); T7 (N); made in house
T2 sequence (Q9Y5Z0 63-473 limits assumed): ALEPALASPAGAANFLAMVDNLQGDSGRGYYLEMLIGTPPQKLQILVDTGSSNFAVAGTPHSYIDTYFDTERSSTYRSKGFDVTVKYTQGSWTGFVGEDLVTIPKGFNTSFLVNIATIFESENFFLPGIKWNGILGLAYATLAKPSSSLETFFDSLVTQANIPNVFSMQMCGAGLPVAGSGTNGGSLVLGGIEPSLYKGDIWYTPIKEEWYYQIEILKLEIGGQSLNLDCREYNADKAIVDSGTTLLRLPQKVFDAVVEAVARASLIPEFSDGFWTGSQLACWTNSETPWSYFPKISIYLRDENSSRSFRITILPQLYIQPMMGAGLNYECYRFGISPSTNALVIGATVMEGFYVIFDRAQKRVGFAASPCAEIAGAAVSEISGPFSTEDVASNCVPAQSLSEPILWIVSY
As to the kind of experiment: Assay A: binding studies using SPR based methods, immobilised BACE2. The note with it: CM5 chip, immobilised BACE2 enzyme ectodomain, acetate buffer pH 4.6, 4% DMSO. In general terms: SPR reads the build-up and loss of mass on a sensor chip optically.

For assay [3], the target named is T3, BACE1 (Homo sapiens, UniProt P56817). As to the kind of experiment: Assay A: binding studies using SPR based methods, immobilised BACE1.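 Also: KD from a 1:1 kinetic fit (koff/kon) of real-time association and dissociation curves, or for fast binders from end-of-association equilibrium responses plotted against log concentration.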 Also on record: 6his-tagged full length BACE 1 expressed in SF9 cells; 6His; made in house; host or cells: SF9 insect cells. The note with it: CM5 chip, immobilised 6his-tagged full length BACE 1, acetate buffer pH 4.6, 4% DMSO.
T3 sequence (P56817 46-501): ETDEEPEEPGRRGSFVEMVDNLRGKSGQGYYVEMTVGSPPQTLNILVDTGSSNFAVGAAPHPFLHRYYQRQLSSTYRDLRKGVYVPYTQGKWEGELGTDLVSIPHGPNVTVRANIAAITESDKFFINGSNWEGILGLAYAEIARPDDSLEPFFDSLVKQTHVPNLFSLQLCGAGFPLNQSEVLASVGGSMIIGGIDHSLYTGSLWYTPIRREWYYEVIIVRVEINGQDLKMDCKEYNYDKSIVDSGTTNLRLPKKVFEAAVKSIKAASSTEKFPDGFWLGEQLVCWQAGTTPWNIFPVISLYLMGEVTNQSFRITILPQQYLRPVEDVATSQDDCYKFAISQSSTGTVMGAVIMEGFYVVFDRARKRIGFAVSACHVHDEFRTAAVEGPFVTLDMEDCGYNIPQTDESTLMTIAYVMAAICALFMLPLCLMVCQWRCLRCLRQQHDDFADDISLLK

Assay [4] concerns the target T3, BACE1. As to the kind of experiment: Cellular Abeta-lowering assay. It is filed as cell-based. Details: endogenous in cells; host or cells: HEK293 stably transfected with human APP695 wt. The conditions noted are these: HEK293 cells stably transfected with human APP wt (APP695), Aβ40 ELISA of supernatant after 18-20 hrs.

As to `CC1(c2cccc(NC(=O)c3ncc(F)cc3F)c2)COCC(N)=N1` (racemic) [Example 1, (RS)-3,5-Difluoro-pyridine-2-carboxylic acid [3-(5-amino-3-methyl-3,6-dihydro-2H-[1,4]oxazin-3-yl)-phenyl]-amide], inhibition at BACE2 [1] was half-maximal at 0.021 µM (IC50). Further, on BACE2 [2], the Kd turned out to be 0.044 µM.

For `CC1(c2cc(NC(=O)c3ccc(Cl)cn3)ccc2F)COCC(N)=N1` (racemic) [Example 20, (RS)-5-chloro-pyridine-2-carboxylic acid [3-(5-amino-3-methyl-3,6-dihydro-2H-[1,4]oxazin-3-yl)-4-fluoro-phenyl]-amide], at BACE2 [1], the IC50 was 0.006 µM. The compound also gave a Kd at BACE2 [2] of 0.008 µM.

Turning to `CC1(c2cccc(NC(=O)c3cnccn3)c2)COCC(N)=N1` (racemic) [Example 25, (RS)-Pyrazine-2-carboxylic acid [3-(5-amino-3-methyl-3,6-dihydro-2H-[1,4]oxazin-3-yl)phenyl]-amide hydrochloride], the Kd was found to be 4.17 µM on BACE1 [3] and 1.22 µM on BACE2 [2]. At BACE1 [4], this compound had an IC50 of 0.41 µM.

Take `CCCCc1ccc(C(=O)Nc2cccc(C3(C)COCC(N)=N3)c2)nc1` (racemic) [Example 32, 5-butyl-pyridine-2-carboxylic acid [3-((RS)-5-amino-3-methyl-3,6-dihydro-2H-[1,4]oxazin-3-yl)-phenyl]-amide hydrochloride]: the Kd was found to be 4.2 µM at BACE1 [3] and 20 µM at BACE2 [2]. At BACE1 [4], the IC50 was found to be 0.67 µM.

As to `CC1(c2cccc(NC(=O)c3ncc(C(F)(F)F)cc3Cl)c2)COCC(N)=N1` (racemic) [Example 33, 3-Chloro-5-trifluoromethyl-pyridine-2-carboxylic acid [3-((RS)-5-amino-3-methyl-3,6-dihydro-2H-[1,4]oxazin-3-yl)-phenyl]-amide], the Kd on BACE1 [3] was 0.077 µM; at BACE2 [2], 0.141 µM. The compound also registered an IC50 against BACE1 [4] of 0.026 µM.

For `CC1(c2cc(NC(=O)c3ccc(-c4cnco4)cc3)ccc2F)COCC(N)=N1` (racemic) [Example 52, (RS)—N-[3-(5-amino-3-methyl-3,6-dihydro-2H-[1,4]oxazin-3-yl)-4-fluoro-phenyl]-4-oxazol-5-yl-benzamide], the Kd on BACE1 [3] was 0.194 µM; on BACE2 [2], greater than 10 µM. For the same compound, 1.18 µM corresponded to half-maximal inhibition on BACE1 [4] (IC50).

Turning to `CC1(c2cc(NC(=O)C3(C(F)(F)F)CC3)ccc2F)COCC(N)=N1` (racemic) [Example 57], the Kd is greater than 10 µM on BACE1 [3] and 1.8 µM on BACE2 [2]. This compound showed an IC50 on BACE2 [1] of 0.32 µM.

For the compound `CC1(c2cccc(NC(=O)c3ccc(OCC4CC4)cn3)c2)COCC(N)=N1` (racemic) [Example 60, 5-cyclopropylmethoxy-pyridine-2-carboxylic acid [3-((RS)-5-amino-3-methyl-3,6-dihydro-2H-[1,4]oxazin-3-yl)-phenyl]-amide hydrochloride], the Kd at BACE1 [3] is 0.112 µM; on BACE2 [2] it was 0.117 µM. The same compound had a half-maximal inhibitory concentration (IC50) against BACE1 [4] of 0.14 µM.

Regarding `CC1(c2cccc(NC(=O)c3ccc(OCCF)cn3)c2)COCC(N)=N1` (racemic) [Example 61, 5-(2-fluoro-ethoxy)-pyridine-2-carboxylic acid [3-((RS)-5-amino-3-methyl-3,6-dihydro-2H-[1,4]oxazin-3-yl)-phenyl]-amide hydrochloride], the Kd at BACE1 [3] turned out to be 0.44 µM; on BACE2 [2] it was 4.68 µM. Also, at BACE1 [4], inhibition was half-maximal at 0.39 µM (IC50).

As for `CC1(c2cccc(NC(=O)c3ccc(OCC(F)F)cn3)c2)COCC(N)=N1` (racemic) [Example 62, 5-(2,2-difluoro-ethoxy)-pyridine-2-carboxylic acid [3-((RS)-5-amino-3-methyl-3,6-dihydro-2H-[1,4]oxazin-3-yl)-phenyl]-amide hydrochloride], the Kd on BACE1 [3] was found to be 5.52 µM; on BACE2 [2], 7.34 µM. This compound returned an IC50 against BACE1 [4] of 0.27 µM.

Turning to `CC1(c2cccc(NC(=O)c3ccncn3)c2)COCC(N)=N1` (racemic) [Example 63, pyrimidine-4-carboxylic acid [3-((RS)-5-amino-3-methyl-3,6-dihydro-2H-[1,4]oxazin-3-yl)-phenyl]-amide], the Kd turned out to be 3.06 µM at BACE1 [3] and 1.09 µM on BACE2 [2]. For the same compound, half-maximal inhibition against BACE1 [4] (IC50) was put at 0.51 µM.

In the case of `C=CCCOc1ccc(C(=O)Nc2cccc(C3(C)COCC(N)=N3)c2)nc1` (racemic) [Example 64, 5-but-3-enyloxy-pyridine-2-carboxylic acid [3-((RS)-5-amino-3-methyl-3,6-dihydro-2H-[1,4]oxazin-3-yl)-phenyl]-amide], the Kd on BACE1 [3] is 0.483 µM; at BACE2 [2] it was 7.82 µM. For the same compound, the IC50 against BACE1 [4] was 0.66 µM.

Turning to `Cc1cnc(C(=O)Nc2cccc(C3(C)COCC(N)=N3)c2)cn1` (racemic) [Example 65, 5-methyl-pyrazine-2-carboxylic acid [3-((RS)-5-amino-3-methyl-3,6-dihydro-2H-[1,4]oxazin-3-yl)-phenyl]-amide], the Kd on BACE1 [3] came to 2.47 µM; on BACE2 [2], 1.12 µM. This compound also had an IC50 against BACE1 [4] of 0.18 µM.

On to `CC1(c2cccc(NC(=O)c3ccc(OCc4ccccc4)cn3)c2)COCC(N)=N1` (racemic) [Example 66, 5-benzyloxy-pyridine-2-carboxylic acid [3-((RS)-5-amino-3-methyl-3,6-dihydro-2H-[1,4]oxazin-3-yl)-phenyl]-amide hydrochloride], for which the values for the Kd at BACE1 [3] and at BACE2 [2] were 0.173 µM and 0.159 µM, respectively. In addition, the IC50 against BACE1 [4] is 0.68 µM.

Consider `CC1(c2cc(NC(=O)c3ccc(-c4ccco4)cn3)ccc2F)COCC(N)=N1` (racemic) [Example 76, 5-furan-2-yl-pyridine-2-carboxylic acid [3-((RS)-5-amino-3-methyl-3,6-dihydro-2H-[1,4]oxazin-3-yl)-4-fluoro-phenyl]-amide], for which the results for the Kd at BACE1 [3] and at BACE2 [2] were 0.093 µM and 0.988 µM, respectively. On BACE1 [4], the concentration for half-maximal inhibition (IC50) was 0.015 µM.

For the compound `CC1(c2cc(NC(=O)c3ccc(N4CCCC4)cn3)ccc2F)COCC(N)=N1` (racemic) [Example 77, 5-pyrrolidin-1-yl-pyridine-2-carboxylic acid [3-((RS)-5-amino-3-methyl-3,6-dihydro-2H-[1,4]oxazin-3-yl)-4-fluoro-phenyl]-amide], the Kd is 1.44 µM on BACE1 [3] and 2.6 µM at BACE2 [2]. This compound gave an IC50 at BACE1 [4] of 0.8 µM.

`CC1(c2cc(NC(=O)c3cc(-c4cccs4)on3)ccc2F)COCC(N)=N1` (racemic) [Example 78, 5-thiophen-2-yl-isoxazole-3-carboxylic acid [3-((RS)-5-amino-3-methyl-3,6-dihydro-2H-[1,4]oxazin-3-yl)-4-fluoro-phenyl]-amide]: the Kd at BACE1 [3] was 0.885 µM; on BACE2 [2], 6.5 µM. On BACE1 [4], this compound registered a 50% inhibitory concentration (IC50) of 0.5 µM.

The compound `C[C@@]1(c2cc(NC(=O)c3ccc(Cl)cn3)ccc2F)COCC(N)=N1` [Example 21, (R)-5-chloro-pyridine-2-carboxylic acid [3-(5-amino-3-methyl-3,6-dihydro-2H-[1,4]oxazin-3-yl)-4-fluoro-phenyl]-amide] had an IC50 against BACE2 [1] of 0.002 µM. Binding on BACE2 [2] was put at a Kd of 0.004 µM.

In turn, `C[C@@]1(c2cc(NC(=O)c3ncc(Cl)cc3Cl)ccc2F)COCC(N)=N1` [Example 34, 3,5-dichloro-pyridine-2-carboxylic acid [3-((R)-5-amino-3-methyl-3,6-dihydro-2H-[1,4]oxazin-3-yl)-4-fluoro-phenyl]-amide] returned an IC50 against BACE2 [1] of 0.004 µM. The Kd at BACE2 [2] is 0.003 µM.

Turning to `C[C@@]1(c2cc(NC(=O)c3ccc(C#N)cc3F)ccc2F)COCC(N)=N1` [Example 42, N-[3-((R)-5-amino-3-methyl-3,6-dihydro-2H-[1,4]oxazin-3-yl)-4-fluoro-phenyl]-4-cyano-2-fluoro-benzamide], the Kd was determined as 0.208 µM at BACE1 [3] and 2.55 µM on BACE2 [2]. This compound also returned an IC50 against BACE1 [4] of 0.19 µM.

In general, IC50 refers to the concentration needed to halve the response being measured. Low readings indicate inhibition by little substance, high ones a need for much substance. For orientation: Kd means the concentration at which binding is half-saturated.
